Experiment [1] concerns the target T1, Type-B CCK receptor (Cavia porcellus, UniProt H0VZC5).
T1 construct: cortex and pancreas were removed and rinsed with ice cold saline; from tissue; host or cells: guinea pig cerebral cortex, membranes
T1 sequence (H0VZC5 1-426): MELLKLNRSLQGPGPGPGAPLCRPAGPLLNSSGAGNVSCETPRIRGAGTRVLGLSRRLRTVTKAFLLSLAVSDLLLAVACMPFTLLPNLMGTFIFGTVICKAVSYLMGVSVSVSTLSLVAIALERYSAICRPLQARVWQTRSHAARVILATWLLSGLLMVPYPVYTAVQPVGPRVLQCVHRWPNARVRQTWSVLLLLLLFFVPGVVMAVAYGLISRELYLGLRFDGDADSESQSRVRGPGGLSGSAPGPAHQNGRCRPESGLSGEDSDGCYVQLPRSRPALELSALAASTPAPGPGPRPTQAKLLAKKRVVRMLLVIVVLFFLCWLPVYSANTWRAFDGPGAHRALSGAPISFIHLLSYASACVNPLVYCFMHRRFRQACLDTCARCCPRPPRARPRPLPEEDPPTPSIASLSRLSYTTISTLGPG
Briefly: Radioligand binding, [^125 I]-BH-CCK8, Type-B CCK receptor (cerebral cortical membranes). Also noted: species or system guinea pig. The source says:
(§1) CCK8 [Asp-Tyr(SO3 H)-Met-Gly-Trp-Met-Asp-Phe-NH2 ] was purchased from Beckman Instruments (Palo Alto, Ca/) and Peptide International (Louisville, Ky.). Chymostatin, L-Try-Gly, puromycin, bestatin, EGTA, HEPES and BSA were purchased from Sigma Chemical Co. (St. Louis, Mo.). [^125 I]BH-CCK8 (specific activity, 2200 Ci/mmol) and Aquasol 2 scintillation cocktail were obtained from New England Nuclear (Boston, Ma.). Male guinea pigs, 250 to 325 g, were obtained from Scientific Small Animal Laboratory and Farm (Arlington Heights, Ill.). Collagenase, 300 units per mg, was purchased from Worthington (Frehold, N.J.)
(§2) 1. Guinea Pig Cerebral Cortical and Pancreatic Membrane Preparations
(§3) Cortical and pancreatic membrances were prepared as described (Lin and Miller; J. Pharmacol. Exp. Ther. 232, 775-780, 1985). In brief, cortex and pancreas were removed and rinsed with ice cold saline. Visible fat and connective tissues were removed from the pancreas. Tissues were weighed and homogenized separately in approximately 25 mL of ice-cold 50 mM Tris-HCl buffer, pH 7.4 at 4° C., with a Brinkman Polytron for 30 sec, setting 7. The homogenates were centrifuged for 10 min at 1075×g and pellets were discarded. The supernatants were saved and centrifuged at 38,730×g for 20 min. The resultant pellets were rehomogenized in 25 mL of 50 mM Tris-HCl buffer with a Teflon-glass homogenizer, 5 up and down strokes. The homogenates were centrifuged again at 38,730×g for 20 min. Pellets were then resuspended in 20 mM HEPES, containing 1 mM EGTA., 118 mM NaCl, 5 mM MgCl2, 100 microM bestatin, 3 microM phosphoramidon, pH 7.4 at 22° C., with a Teflon-glass homogenizer, 15 up and down strokes. Resuspension volume for the cortex was 15-18 mL per gm of original wet weight and 60 mL per gm for the pancreas.
^125 I]Bolton-Hunter CCK8, and test compounds were diluted with HEPES-EGTA-salt buffer (see above) containing 0.5% bovine serum albumin (BSA). To 1 mL Skatron polystyrene tubes were added 25 microliters of test compounds, 25 miroliters of [^125 I]BH-CCK8, and 200 microliters of membrane suspension. The final BSA concentration was 0.1%. The cortical tissues were incubated at 30° C. for 150 min and pancreatic tissues were incubated at 37° C. for 30 min. Incubations were terminated by filtration using Skatron Cell Harvester and SS32 microfiber filter mats. […] IC50 's were determined from the Hill analysis.

In experiment [2] the target is T2, Type-A CCK receptor (Cavia porcellus, UniProt Q63931).
T2 construct: cortex and pancreas were removed and rinsed with ice cold saline; from tissue; host or cells: guinea pig pancreas, membranes
T2 sequence (Q63931 1-430): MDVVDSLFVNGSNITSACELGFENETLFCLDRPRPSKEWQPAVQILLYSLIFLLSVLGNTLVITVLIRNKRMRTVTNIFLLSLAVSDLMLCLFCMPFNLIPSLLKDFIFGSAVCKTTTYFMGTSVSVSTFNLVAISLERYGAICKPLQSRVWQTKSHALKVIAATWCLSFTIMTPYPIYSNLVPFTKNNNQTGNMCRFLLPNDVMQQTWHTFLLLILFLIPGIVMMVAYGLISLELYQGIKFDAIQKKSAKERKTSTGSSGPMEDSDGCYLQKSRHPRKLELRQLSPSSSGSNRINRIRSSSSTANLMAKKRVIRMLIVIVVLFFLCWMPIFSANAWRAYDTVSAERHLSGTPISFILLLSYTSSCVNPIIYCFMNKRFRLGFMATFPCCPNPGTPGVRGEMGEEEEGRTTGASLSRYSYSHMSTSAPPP
The experiment is described as follows: Radioligand binding, [^125 I]-BH-CCK8, Type-A CCK receptor (pancreatic membranes). On the set-up: species or system guinea pig.
Description: as §1, §2, §3
^125 I]Bolton-Hunter CCK8, and test compounds were diluted with HEPES-EGTA-salt buffer (see above) containing 0.5% bovine serum albumin (BSA). To 1 mL Skatron polystyrene tubes were added 25 microliters of test compounds, 25 miroliters of [^125 I]BH-CCK8, and 200 microliters of membrane suspension. The final BSA concentration was 0.1%. The cortical tissues were incubated at 30° C. for 150 min and pancreatic tissues were incubated at 37° C. for 30 min. Incubations were terminated by filtration using Skatron Cell Harvester and SS32 microfiber filter mats. The specific binding of [^125 I]BH-CCK8, defined as the difference between binding in the absence and presence of 1 microM CCK8, was 85 90% of pancreas. IC50 's were determined from the Hill analysis.

Experiment [3] relates to guinea pig acini. Briefly: Inhibition of CCK8-stimulated amylase release from acini. Type of experiment: cell-based. The conditions noted are these: Cavia porcellus, 0.5 h, CCK8 3×10^-10 M, 37° C., 30 min. How it is done: Protocol for Amylase This assay was performed using the modified protocol of Lin et al., J. Pharmacol. Exp. Ther. 236, 734, 1986. 1. Guinea Pig Acini Preparation Guinea pig acini were prepared by the method of Bruzzone et al. (Biochem. J. 226, 621-624, 1985) as follows. Pancreas was dissected out and connective tissues and blood vessels were removed. The pancreas was cut into small pieces (2mm) by a scissor and placed in a 15 mL conical plastic tube containing 2.5 mL of Krebs Ringer HEPES (KRH) buffer plus 400 units per mL of collagenase. The composition of the KRH buffer was: HEPES, 12.5 mM: NaCl, 118 mM; KCI, 4.8 mM; CaCl2, 1 mM; […]; MgSO4, 1.2 mM; NaHCO3, 5 mM; glucose, 10 mM, pH 7.4. The buffer was supplemented with MEM vitamins, 1% MEM amino acids and 0.001% aprotinin. The tube was shaken by hand until the suspension appeared homogeneous, usually 5 to 6 min. 5 mL of the KRH, without collagenase and with 0.1% BSA, were added and the tube was centrifuged at 50×g for 35 sec. The supernatant was discarded and 6 mL of the KRH were added to the cell pellet. […] This wash procedure was repeated once. The cell pellet from the last centrifugation step was then resuspended in 15 mL of KRH containing 0.1% BSA. The contents were filtered through a dual nylon mesh, size 275 and 75 micrometers. The filtrate, containing the acini, were centrifuged at 50×for 3 min. The acini were then resuspended in 5 mL of KRH-BSA buffer for 30 min at 37° C., under 100% O2, with a change of fresh buffer at 15 min. 2. Amylase Assay After the 30 min incubation time, the acini were resuspended in 100 volumes of KRH-BSA buffer, containing 3 microM phosphoramidon and 100 microM bestatin. […] The final assay volume was 500 microliters. Tubes were vortexed and placed in a 37° C. water bath, under 100% O2, for 30 min. Afterward, tubes were centrifuged at 10,000 g for 1 min. […] The results of this assay are […]

Experiment [4] relates to CCK8. Briefly: Inhibition of CCK induced gastric emptying (charcoal meal). Type of experiment: in vivo. The conditions noted are these: 100 mg/kg p.o., CCK8 80 micrograms/kg s.c. As to the method:
Inhibition Of CCK Induced Gastric Emptying
Three fasted mice were dosed (p.o.) with the test compound. CCK8 (80 micrograms/kg s.c.) was administered within 60 minutes and charcoal meal (0.1 mL of 10% suspension) was given orally 5 minutes later. The animals were sacrificed within an additional 5 minutes.
Gastric emptying, defined as the presence of charcoal within the intestine beyond the pyloric sphincter, is inhibited by CCK8. Gastric emptying observed in more than 1 or 3 mice (greater than 1) indicates antagonism of CCK8.

[5] abbreviates: guinea pig pancreatic membranes, 37° C., 30 min, IC50 from Hill analysis.

Where a name gives a salt, the structure may show the parent alone. Read-outs that look alike come from different tables or passages of the source.

A word on the IC50: it is the concentration at which inhibition is half-maximal. Read a low IC50 as inhibition by little substance. As for `CCCCCN(CCCCC)C(=O)[C@@H](CCC(=O)OC)NC(=O)c1cc2ccccc2[nH]1` [Example 23, N-(2'-Indolylcarbonyl)-(γ-methyl ester)-R-Glu-di-n-pentylamide], the concentration for half-maximal inhibition (IC50) in experiment [1] was 3600 nM; in experiment [2], 98 nM; in experiment [3] it was 1300 nM.

In the case of `CCCCCN(CCCCC)C(=O)[C@@H](CCC(=O)O)NC(=O)c1c[nH]c2ccccc12` [Example 12, N-(3'-Indolylcarbonyl)-R-Glu-N^α,N^α -di-n-penylamide], the concentration for half-maximal inhibition (IC50) in experiment [1] came out at 3200 nM; in experiment [2] (setting [5]) it was 260 nM; in experiment [3] it was 830 nM.

As to `O=C(O)CC[C@@H](NC(=O)c1cc2ccccc2[nH]1)C(=O)N(Cc1ccccc1)Cc1ccccc1` [Example 29, N-(2'-Indolylcarbonyl)-R-Glu-N^α,N^α -dibenzylamide], the IC50 was 5100 nM in experiment [1], 30 nM in experiment [2] and 130 nM in experiment [3].

With `CCCCCN(CCCCC)C(=O)[C@@H](CC(=O)O)NC(=O)c1cc2ccccc2[nH]1` [Example 19, N-(2'-Indolylcarbonyl)-R-Asp-N^α,N^α -di-n-pentylamide], the half-inhibitory concentration (IC50) in experiment [1] worked out at 2600 nM; in experiment [2] it was 27 nM; in experiment [3] it was 55 nM.

Take `CCCCCN(CCCCC)C(=O)[C@@H](CCC(=O)O)NC(=O)c1cnc2ccccc2c1` [Example 15, N-(3'-Quinolylcarbonyl)-R-Glu-N^α,N^α -di-n-pentylamide]: the IC50 in experiment [1] worked out at 3500 nM; in experiment [2] it was 5.4 nM; in experiment [3], 16 nM.

With `CCCCCN(CCCCC)C(=O)[C@@H](CCC(=O)O)NC(=O)c1cnc2ccccc2c1` [Example 118, N-(3'-Quinolylcarbonyl)-R-Glu-N^α,N^α -di-n-pentylamideDicyclohexylamine salt], the “Gastric emptying observed (mice out of three; more than 1 indicates antagonism of CCK8)” value in experiment [4] is recorded as “three out of three”.

Regarding `CCCCCN(CCCCC)C(=O)[C@@H](CCC(=O)O)NC(=O)c1cc2ccccc2[nH]1` [Example 4, N-(2,-Indolylcarbonyl)-R-Glu-N^α,N^α -di-n-pentylamide], the half-inhibitory concentration (IC50) amounted to 20 nM in experiment [2] and 22 nM in experiment [3].

As for `CCCCCN(CCCCC)C(=O)[C@H](CCC(=O)O)NC(=O)c1cc2ccccc2[nH]1` [Example 8, N-(2'-Indolylcarbonyl)-S-Glu-N^α,N^α -di-n-pentylamide], the concentration for half-maximal inhibition (IC50) in experiment [2] (setting [5]) was determined as 200 nM; in experiment [3] it was 590 nM.

`O=C(O)CC[C@@H](NC(=O)c1cc2ccccc2[nH]1)C(=O)N(c1ccccc1)c1ccccc1` [Example 74, N-(2'-Indolylcarbonyl)-R-Glu-N^α,N^α -diphenylamide]: the half-inhibitory concentration (IC50) is 2000 nM in experiment [1], 210 nM in experiment [2] and 1200 nM in experiment [3].

Take `CCOC(=O)CN(Cc1ccccc1)C(=O)[C@@H](CCC(=O)OCc1ccccc1)NC(=O)c1cnc2ccccc2c1` [Example 82, Ethyl N-(3,-Quinolylcarbonyl)-(γ-benzylester)-R-Glutamyl (N-benzyl)glycinate]: the figures for the IC50 in experiment [1] and in experiment [2] were 10000 nM and 250 nM, respectively.

For `CCCCCN(CCCCC)C(=O)[C@@H](CCC(=O)O)NC(=O)c1ccc2ncccc2c1` [Example 34, N-(6'-Quinolylcarbonyl)-R-Glu-N^α,N^α -d-n-pentylamide], the concentration for half-maximal inhibition (IC50) in experiment [1] was approximately 10000 nM; in experiment [2] it was 30 nM; in experiment [3], 53 nM.

The record behind these values is US5128346A, “Derivatives of D-glutamic acid and D-aspartic acid” (priority 1990, dated 1992).
